Laboratory results published in article PMC4877957 (BMC Microbiology, 2016).

What was measured:
RoxAXsp = biological target: T1, RoxAXsp (Xanthomonas sp. 35Y, UniProt Q7X0P3); assay: HPLC of polyisoprene cleavage products; type: biochemical; details: poly(cis-1,4-isoprene) latex, oxygen; 23 °C
T1 construct: gene roxA; purified as described previously; c-type dihaem

LcpRr = biological target: T2, LcpRr (Rhodococcus rhodochrous, UniProt A0A165QBG6); assay: HPLC product assay (C35 peak), polyisoprene latex; details: read-out: % inhibition at 1 mM
T2 sequence (A0A165QBG6 31-408): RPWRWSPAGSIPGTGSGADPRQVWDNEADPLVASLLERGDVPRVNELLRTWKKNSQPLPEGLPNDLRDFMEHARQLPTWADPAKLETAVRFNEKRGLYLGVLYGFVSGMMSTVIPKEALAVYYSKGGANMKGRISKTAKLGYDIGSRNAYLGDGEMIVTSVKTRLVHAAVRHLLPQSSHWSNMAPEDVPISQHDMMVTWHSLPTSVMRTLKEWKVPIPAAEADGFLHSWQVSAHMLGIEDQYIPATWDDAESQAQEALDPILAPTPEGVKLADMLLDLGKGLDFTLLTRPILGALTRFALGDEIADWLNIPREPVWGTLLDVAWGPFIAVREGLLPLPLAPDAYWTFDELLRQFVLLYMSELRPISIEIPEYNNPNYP

T1 sequence (Q7X0P3 entry or part of it): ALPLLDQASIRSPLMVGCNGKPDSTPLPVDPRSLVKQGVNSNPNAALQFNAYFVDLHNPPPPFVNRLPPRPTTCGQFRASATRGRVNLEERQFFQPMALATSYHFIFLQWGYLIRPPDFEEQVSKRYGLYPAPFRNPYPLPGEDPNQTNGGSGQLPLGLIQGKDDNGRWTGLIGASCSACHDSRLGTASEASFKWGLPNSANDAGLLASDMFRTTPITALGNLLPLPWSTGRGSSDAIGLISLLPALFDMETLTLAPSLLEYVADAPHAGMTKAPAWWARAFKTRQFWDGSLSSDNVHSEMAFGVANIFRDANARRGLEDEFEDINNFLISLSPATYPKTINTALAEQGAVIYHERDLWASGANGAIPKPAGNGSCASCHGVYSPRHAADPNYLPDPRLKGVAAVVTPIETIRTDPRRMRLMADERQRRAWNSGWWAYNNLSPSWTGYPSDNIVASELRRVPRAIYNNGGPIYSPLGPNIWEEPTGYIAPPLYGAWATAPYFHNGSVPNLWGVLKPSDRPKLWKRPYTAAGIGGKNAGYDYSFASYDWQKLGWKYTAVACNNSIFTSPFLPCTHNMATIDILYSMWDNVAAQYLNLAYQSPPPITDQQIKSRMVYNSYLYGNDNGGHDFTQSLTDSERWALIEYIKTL

In the case of `CC(=O)CCC=C(C)CCC=C(C)CCC=O` [ODTD, 12-oxo-4,8-dimethyl-trideca-4,8-diene-1-al], the “HPLC of polyisoprene cleavage products” value (RoxAXsp) is reported as “ODTD was the main cleavage product of RoxAXsp”.
In the case of `CCN(CC)C(=S)S` [diethyl dithiocarbamate], the inhibition at 1000 µM (LcpRr) is reported as 82%.
